Measurements published in article PMC8708503, “Scalarane Sesterterpenoids with Antibacterial and Anti-Proliferative Activities from the Mushroom Neonothopanus nambi” (Molecules, 2021).
Values after ≈ are worked out from the molar mass of the structure shown.

What was measured:
Assay type in all cases: cell-based
[1] = system: Staphylococcus aureus ATCC 25923; assay: Antibacterial assay (CLSI), S. aureus; design: key to MIC, Staphylococcus aureus ATCC 25923: inactive: Inactive at >128 μg/mL; settings: Inactive at >128 μg/mL; for MIC: Staphylococcus aureus, ATCC25923
Method: (§1) Five microorganism cultures (Methicillin resistant S. aureus DMST 20654, S. aureus ATCC 25923, S. sonnei ATCC 11060, B. subtilis ATCC 6633, and B. cereus ATCC 11778) were used. The experiments were performed at the Department of Microbiology, Faculty of Science, Khon Kaen University, Thailand. The antibacterial assay was performed as recommended by the Clinical and Laboratory Standards Institute. The standard drugs kanamycin and chloramphenicol were used as positive controls.

[2] = system: Bacillus cereus ATCC 11778; assay: Antibacterial assay (CLSI), B. cereus; design: key to MIC, Bacillus cereus ATCC 11778: inactive: Inactive at >128 μg/mL; settings: Inactive at >128 μg/mL; for MIC: Bacillus cereus, ATCC11778
Method: as §1

[3] = system: Bacillus subtilis ATCC 6633; assay: Antibacterial assay (CLSI), B. subtilis; design: key to MIC, Bacillus subtilis ATCC 6633: inactive: Inactive at >128 μg/mL; settings: Inactive at >128 μg/mL; for MIC: Bacillus subtilis, ATCC6633
Method: as §1

[4] = system: Methicillin Resistant Staphylococcus aureus DMST 20654; assay: Antibacterial assay (CLSI), MRSA; design: key to MIC, Methicillin Resistant Staphylococcus aureus DMST 20654: inactive: Inactive at >128 μg/mL; settings: Inactive at >128 μg/mL; for MIC: Staphylococcus aureus
Method: as §1

[5] = system: A549 human lung carcinoma cell line; assay: MTT anti-proliferative assay, A549; settings: Mean ± S.D. (n = 3)
Method: (§2) The anti-proliferative effect on cancer cells was evaluated by MTT (3-(4,5-dimethylthiazol-2-yl)-2,5-diphenyltetrazolium bromide) assay. Cells (8 × 10^3 cell/well) were seeded onto 96-well plates and incubated for 24 h to allow adherence. After 24 h, the cells were exposed to increasing concentrations (3.12, 6.25, 12.5, 25, 50, and 100 μg/mL) of pure metabolites in a mixture of DMSO and ethanol (1:1) for 72 h. Control groups were treated with a mixture of DMSO and ethanol (1:1). After the indicated time, the medium was replaced with 110 μL of fresh medium containing MTT (0.5 mg/mL in PBS) (Sigma Chemical Co., St Louis, MO, USA) and incubated for 2 h. The formazan formed after conversion of MTT was dissolved in DMSO. The absorbance of formazan was measured with a microplate reader (Bio-Rad Laboratories, Hercules, CA, USA) at the wavelength of 550 nm with a reference wavelength of 655 nm. The percentage of viable cells which corresponds to the production of formazan was calculated using the following formula [19]. %cell viability = [Sample (A550 - […])/Control (A550 - […])] × 100(1)

HT29 human colon cancer = assay: MTT anti-proliferative assay, HT29; settings: Mean ± S.D. (n = 3)
Method: as §2

[6] = system: HeLa human cervical cancer; assay: MTT anti-proliferative assay, HeLa; settings: 72 h, Mean ± S.D. (n = 3)
Method: as §2

[7] = system: HCT-116 human colon cancer; assay: MTT anti-proliferative assay, HCT-116; settings: Mean ± S.D. (n = 3)
Method: as §2

Vero cells = assay: MTT cytotoxicity assay, Vero cells; settings: 72 h, Mean ± S.D. (n = 3)
Method: as §2

| SMILES | MIC [1] [µg/mL] | MIC [2] [µg/mL] | MIC [3] [µg/mL] | MIC [4] [µg/mL] | IC50 ([5]; Homo sapiens, A549, 72 h) [µM] | IC50 (HT29 human colon cancer; Homo sapiens, HT-29, 72 h) [µM] | IC50 ([6]; Homo sapiens, HeLa) [µM] | IC50 ([7]; Homo sapiens, HCT-116, 72 h) [µM] | MIC, Bacillus cereus ATCC 11778 [2] | MIC, Bacillus subtilis ATCC 6633 [3] | MIC, Methicillin Resistant Staphylococcus aureus DMST 20654 [4] | MIC, Staphylococcus aureus ATCC 25923 [1] | IC50 (Vero cells; Chlorocebus sabaeus, Vero) [µM] | IC50, Vero Cells (Vero cells) | IC50 ([5]; 72 h) [µM] | IC50 (HT29 human colon cancer; 72 h) [µM] | IC50 [6] [µM] | IC50 ([7]; 72 h) [µM] | IC50 (Vero cells) [µM] |
| --- | --- | --- | --- | --- | --- | --- | --- | --- | --- | --- | --- | --- | --- | --- | --- | --- | --- | --- | --- |
| O=C(N[C@H](CO)[C@H](O)c1ccc([N+](=O)[O-])cc1)C(Cl)Cl [Chloramphenicol, reference compound] | 8 (≈ 24.8 µM) | 4 (≈ 12.4 µM) | 4 (≈ 12.4 µM) | 8 (≈ 24.8 µM) |  |  |  |  |  |  |  |  |  |  |  |  |  |  |  |
| CC1(C)CCCC2(C)C1C(O)CC1(C)C3CCc4cocc4C3(C)CCC21 (centres unmarked) [Compound 1, Nambiscalarane B] | 128 (≈ 345 µM) |  |  |  | 24.3 ± 7.56 | 22.71 ± 0.16 | 40.8 ± 0.73 | 20.3 ± 3.13 | inactive | inactive | inactive |  | > 100 |  |  |  |  |  |  |
| CC(=O)OC1CC2(C)C3CCc4cocc4C3(C)CC(OC(=O)CC(=O)O)C2C2(C)CCCC(C)(C)C12 (centres unmarked) [Compound 2, Nambiscalarane C] | 128 (≈ 249 µM) | 32 (≈ 62.2 µM) | 32 (≈ 62.2 µM) | 128 (≈ 249 µM) | 85 ± 10.2 | 33 ± 1.63 | 73.2 ± 5.37 | 14.3 ± 0.56 |  |  |  |  | > 100 |  |  |  |  |  |  |
| CC(=O)OC1CC2(C)C3CCc4cocc4C3(C)CC(OC(=O)CC(C)=CC(=O)O)C2C2(C)CCCC(C)(C)C12 (centres unmarked) [Compound 3, Nambiscalarane D] |  | 32 (≈ 57.7 µM) | 16 (≈ 28.8 µM) |  | 25 ± 1.59 | 20.8 ± 0.63 | 21.1 ± 1.66 | 21.4 ± 1.14 |  |  | inactive | inactive | 70.2 ± 8.23 | no cytotoxicity |  |  |  |  |  |
| CC(=CC(=O)OC1CC2(C)c3cocc3CCC2C2(C)CC(O)C3C(C)(C)CCCC3(C)C12)CC(=O)O (centres unmarked) [Compound 4, Nambiscalarane E] | 128 (≈ 250 µM) |  |  |  | 22.9 ± 1.99 | 19.6 ± 2.32 | 23.7 ± 0.51 | 13.4 ± 0.39 | inactive | inactive | inactive |  | > 100 |  |  |  |  |  |  |
| CC(=O)OC1CC2(C)C3CCC4=C(COC4=O)C3(C)CC(OC(=O)C=C(C)CC(=O)O)C2C2(C)CCCC(C)(C)C12 (centres unmarked) [Compound 5, Nambiscalarane F] | 16 (≈ 28 µM) | 128 (≈ 224 µM) | 128 (≈ 224 µM) |  | 99.14 ± 0.36 | 54.5 ± 5.93 | 72.9 ± 5.23 | 32.7 ± 2.37 |  |  | inactive |  | > 100 | no cytotoxicity |  |  |  |  |  |
| N.N.[Cl][Pt][Cl] [cis-platin, reference compound] |  |  |  |  |  |  |  |  |  |  |  |  |  |  | 16.86 ± 0.03 | 5.3 ± 0.23 | 6.43 ± 0.13 | 4.93 ± 0.77 | > 100 |

Further lines, with some results ahead:

| MIC [1] [µg/mL] | MIC [2] [µg/mL] | MIC [3] [µg/mL] | MIC [4] [µg/mL] | IC50 ([5]; Homo sapiens, A549, 72 h) [µM] | IC50 (HT29 human colon cancer; Homo sapiens, HT-29, 72 h) [µM] | IC50 ([6]; Homo sapiens, HeLa) [µM] | IC50 ([7]; Homo sapiens, HCT-116, 72 h) [µM] | MIC, Bacillus cereus ATCC 11778 [2] | MIC, Bacillus subtilis ATCC 6633 [3] | MIC, Methicillin Resistant Staphylococcus aureus DMST 20654 [4] | MIC, Staphylococcus aureus ATCC 25923 [1] | SMILES | IC50 (Vero cells; Chlorocebus sabaeus, Vero) [µM] | IC50, Vero Cells (Vero cells) | IC50 ([5]; 72 h) [µM] | IC50 (HT29 human colon cancer; 72 h) [µM] | IC50 [6] [µM] | IC50 ([7]; 72 h) [µM] | IC50 (Vero cells) [µM] |
| --- | --- | --- | --- | --- | --- | --- | --- | --- | --- | --- | --- | --- | --- | --- | --- | --- | --- | --- | --- |
| 64 (≈ 112 µM) | 128 (≈ 224 µM) |  |  | > 100 | 78.2 ± 4.28 | 45.9 ± 2.77 | 16.5 ± 2.79 |  | inactive | inactive |  | CC(=O)OC1CC2(C)C3CCC4=C(COC4=O)C3(C)CC(OC(=O)CC(C)=CC(=O)O)C2C2(C)CCCC(C)(C)C12 (centres unmarked) [Compound 6, Nambiscalarane G] | > 100 |  |  |  |  |  |  |
|  | 64 (≈ 109 µM) | 64 (≈ 109 µM) |  | > 100 | > 100 | > 100 | > 100 |  |  | inactive | inactive | CC(=O)OC1CC2(C)C3CCC4=C(C(O)OC4=O)C3(C)CC(OC(=O)C=C(C)CC(=O)O)C2C2(C)CCCC(C)(C)C12 (centres unmarked) [Compound 7, Nambiscalarane H] | > 100 | no cytotoxicity |  |  |  |  |  |
| 16 (≈ 28.8 µM) | 16 (≈ 28.8 µM) | 8 (≈ 14.4 µM) | 128 (≈ 231 µM) | 27.5 ± 0.32 | 20.4 ± 2.07 | 26.6 ± 2.58 | 24.4 ± 2.06 |  | 8 µg/mL (≈ 14.4 µM) |  |  | CC(=O)O[C@H]1C[C@]2(C)[C@H]([C@H](OC(=O)/C=C(\C)CC(=O)O)C[C@]3(C)c4cocc4CC[C@@H]23)[C@@]2(C)CCCC(C)(C)[C@H]12 [Compound 8, Nambiscalarane] | > 100 |  |  |  |  |  |  |
|  |  |  |  |  |  |  |  | 16 µg/mL (≈ 33 µM) | 8 µg/mL (≈ 16.5 µM) | 4 µg/mL (≈ 8.26 µM) | 2 µg/mL (≈ 4.13 µM) | NC[C@H]1O[C@H](O[C@H]2[C@H](O)[C@@H](O[C@H]3O[C@H](CO)[C@@H](O)[C@H](N)[C@H]3O)[C@H](N)C[C@@H]2N)[C@H](O)[C@@H](O)[C@@H]1O [Kanamycin, reference compound] |  |  |  |  |  |  |  |
